Data: patent publication US20140274688A1, “MOLECULES HAVING CERTAIN PESTICIDAL UTILITIES, AND INTERMEDIATES, COMPOSITIONS, AND PROCESSES RELATED THERETO” (DOW AGROSCIENCES LLC, priority 2013, published 2014)

Assays:
[1] = tested on: Beet Armyworm (Spodoptera exigua) ("BAW"); assay: Bioassay on Beet Armyworm (BAW), 128-well diet tray assay, percent mortality; format: in vivo; settings: Spodoptera exigua, read-out: BAW
Excerpt: (§1) Bioassays on Beet Armyworm (Spodoptera exigua) (“BAW”) and Cabbage Looper (Trichoplusia ni) (“CL”)
(§2) BAW has few effective parasites, diseases, or predators to lower its population. BAW infests many weeds, trees, grasses, legumes, and field crops. In various places, it is of economic concern upon asparagus, cotton, corn, soybeans, tobacco, alfalfa, sugar beets, peppers, tomatoes, potatoes, onions, peas, sunflowers, and citrus, among other plants. The Cabbage Looper is a member of the moth family Noctuidae. It is found throughout the world. It is attacks cabbage, cauliflower, broccoli, Brussel sprouts, tomatoes, cucumbers, potatoes, kale, turnips, mustard, peppers, eggplant, watermelons, melons, squash, cantaloupe, peas, beans, collards, lettuce, spinach, celery, parsley, beets, peas, alfalfa, soybeans, and cotton. This species is very destructive to plants due to its voracious consumption of leaves. In the case of cabbage, however, they feed not only on the wrapper leaves, but also may bore into the developing head. The larvae consume three times their weight in plant material daily. The feeding sites are marked by large accumulations of sticky, wet fecal material.
(§3) Consequently, because of the above factors control of these pests is important.
(§4) Certain molecules disclosed in this document were tested against BAW and CEW using procedures described in the following examples. In the reporting of the results, the “BAW & CL Rating Table” was used (See Table Section).
(§5) Trays were covered with a clear self-adhesive cover and held at 25° C., 14:10 light-dark for five to seven days. Percent mortality was recorded for the larvae in each well; activity in the eight wells was then averaged. The results are indicated in the table entitled “Table ABC: Biological Results” (See Table Section).

[2] = tested on: Cabbage Looper (Trichoplusia ni) ("CL"); assay: Bioassay on Cabbage Looper (CL), 128-well diet tray assay, percent mortality; format: in vivo; settings: Trichoplusia ni, read-out: CL
Excerpt: as §1, §2, §3, §4
Bioassays on Cabbage Looper in CL
as §5

Row | SMILES | pest or weed control at 50 µg/cm2 [1] | pest or weed control at 50 µg/cm2 [2]
1 | Cc1ccc(C(C)C)c(N2CC(C)CS/C2=N\C(=O)NCCc2ccc(-c3ncn(-c4ccc(OC(F)(F)F)cc4)n3)cc2)c1 (centres unmarked) [P64, (Z)-1-(3-(2-isopropyl-5-methylphenyl)-5-methyl-1,3-thiazinan-2-ylidene)-3-(4-(1-(4-(trifluoromethoxy)phenyl)-1H-1,2,4-triazol-3-yl)phenethyl)urea] | 50 to 100% | 50 to 100%
2 | Cc1ccc(C(C)C)c(N2C(=O)CS/C2=N\C(=O)NC(C)C(C)c2ccc(-c3ncn(-c4ccc(OC(F)(F)F)cc4)n3)cc2)c1 (centres unmarked) [P66, (Z)-1-(3-(2-isopropyl-5-methylphenyl)-4-oxothiazolidin-2-ylidene)-3-(3-(4-(1-(4-(trifluoromethoxy)phenyl)-1H-1,2,4-triazol-3-yl)phenyl)butan-2-yl)urea] | 50 to 100% | 50 to 100%
3 | Cc1ccccc1N1C(=O)CS/C1=N\C(=O)NCCc1cccc(-c2ncn(-c3ccc(OC(F)(F)F)cc3)n2)c1 [P74, (Z)-1-(4-oxo-3-(o-tolyl)thiazolidin-2-ylidene)-3-(3-(1-(4-(trifluoromethoxy)phenyl)-1H-1,2,4-triazol-3-yl)phenethyl)urea] | 50 to 100% | 50 to 100%
4 | CCc1ccccc1N1C(=O)CS/C1=N\C(=O)NCCc1cccc(-c2ncn(-c3ccc(OC(F)(F)F)cc3)n2)c1 [P75, (Z)-1-(3-(2-ethylphenyl)-4-oxothiazolidin-2-ylidene)-3-(3-(1-(4-(trifluoromethoxy)phenyl)-1H-1,2,4-triazol-3-yl)phenethyl)urea] | 50 to 100% | 50 to 100%
5 | CC(C)c1ccccc1N1C(=O)CS/C1=N\C(=O)NCCc1cccc(-c2ncn(-c3ccc(OC(F)(F)F)cc3)n2)c1 [P76, (Z)-1-(3-(2-isopropylphenyl)-4-oxothiazolidin-2-ylidene)-3-(3-(1-(4-(trifluoromethoxy)phenyl)-1H-1,2,4-triazol-3-yl)phenethyl)urea] | 50 to 100% | 50 to 100%
6 | CCCc1ccc(C)cc1N1C(=O)CS/C1=N\C(=O)NCCc1cccc(-c2ncn(-c3ccc(OC(F)(F)F)cc3)n2)c1 [P80, (Z)-1-(3-(5-methyl-2-propylphenyl)-4-oxothiazolidin-2-ylidene)-3-(3-(1-(4-(trifluoromethoxy)phenyl)-1H-1,2,4-triazol-3-yl)phenethyl)urea] | 50 to 100% | 50 to 100%
7 | CCc1cccc(C)c1N1C(=O)CS/C1=N\C(=O)NCCc1cccc(-c2ncn(-c3ccc(OC(F)(F)F)cc3)n2)c1 [P83, (Z)-1-(3-(2-ethyl-6-methylphenyl)-4-oxothiazolidin-2-ylidene)-3-(3-(1-(4-(trifluoromethoxy)phenyl)-1H-1,2,4-triazol-3-yl)phenethyl)urea] | 50 to 100% | 50 to 100%
8 | Cc1ccc(N2C(=O)CS/C2=N\C(=O)NCCc2cccc(-c3ncn(-c4ccc(OC(F)(F)F)cc4)n3)c2)c(C(C)C)c1 [P84, (Z)-1-(3-(2-isopropyl-4-methylphenyl)-4-oxothiazolidin-2-ylidene)-3-(3-(1-(4-(trifluoromethoxy)phenyl)-1H-1,2,4-triazol-3-yl)phenethyl)urea] | 50 to 100% | 50 to 100%
9 | CC(C)c1cc(F)ccc1N1C(=O)CS/C1=N\C(=O)NCCc1cccc(-c2ncn(-c3ccc(OC(F)(F)F)cc3)n2)c1 [P85, (Z)-1-(3-(4-fluoro-2-isopropylphenyl)-4-oxothiazolidin-2-ylidene)-3-(3-(1-(4-(trifluoromethoxy)phenyl)-1H-1,2,4-triazol-3-yl)phenethyl)urea] | 50 to 100% | 50 to 100%
10 | COc1ccc(N2C(=O)CS/C2=N\C(=O)NCCc2cccc(-c3ncn(-c4ccc(OC(F)(F)F)cc4)n3)c2)c(C)c1 [P87, (Z)-1-(3-(4-methoxy-2-methylphenyl)-4-oxothiazolidin-2-ylidene)-3-(3-(1-(4-(trifluoromethoxy)phenyl)-1H-1,2,4-triazol-3-yl)phenethyl)urea] | 50 to 100% | 50 to 100%
11 | Cc1ccccc1N1C(=O)CS/C1=N\C(=O)NCCCc1ccc(-c2ncn(-c3ccc(OC(F)(F)F)cc3)n2)cc1 [P92, (Z)-1-(4-oxo-3-(o-tolyl)thiazolidin-2-ylidene)-3-(3-(4-(1-(4-(trifluoromethoxy)phenyl)-1H-1,2,4-triazol-3-yl)phenyl)propyl)urea] | 50 to 100% | 50 to 100%
12 | CCc1ccccc1N1C(=O)CS/C1=N\C(=O)NCCCc1ccc(-c2ncn(-c3ccc(OC(F)(F)F)cc3)n2)cc1 [P93, (Z)-1-(3-(2-ethylphenyl)-4-oxothiazolidin-2-ylidene)-3-(3-(4-(1-(4-(trifluoromethoxy)phenyl)-1H-1,2,4-triazol-3-yl)phenyl)propyl)urea] | 50 to 100% | 50 to 100%
13 | CC(C)c1ccccc1N1C(=O)CS/C1=N\C(=O)NCCCc1ccc(-c2ncn(-c3ccc(OC(F)(F)F)cc3)n2)cc1 [P94, (Z)-1-(3-(2-isopropylphenyl)-4-oxothiazolidin-2-ylidene)-3-(3-(4-(1-(4-(trifluoromethoxy)phenyl)-1H-1,2,4-triazol-3-yl)phenyl)propyl)urea] | 50 to 100% | 50 to 100%
14 | CCCc1ccc(C)cc1N1C(=O)CS/C1=N\C(=O)NCCCc1ccc(-c2ncn(-c3ccc(OC(F)(F)F)cc3)n2)cc1 [P99, (Z)-1-(3-(5-methyl-2-propylphenyl)-4-oxothiazolidin-2-ylidene)-3-(3-(4-(1-(4-(trifluoromethoxy)phenyl)-1H-1,2,4-triazol-3-yl)phenyl)propyl)urea] | 50 to 100% | 50 to 100%
15 | CCc1cccc(C)c1N1C(=O)CS/C1=N\C(=O)NCCCc1ccc(-c2ncn(-c3ccc(OC(F)(F)F)cc3)n2)cc1 [P101, (Z)-1-(3-(2-ethyl-6-methylphenyl)-4-oxothiazolidin-2-ylidene)-3-(3-(4-(1-(4-(trifluoromethoxy)phenyl)-1H-1,2,4-triazol-3-yl)phenyl)propyl)urea] | 0 to 50% | 50 to 100%
16 | Cc1ccc(N2C(=O)CS/C2=N\C(=O)NCCCc2ccc(-c3ncn(-c4ccc(OC(F)(F)F)cc4)n3)cc2)c(C(C)C)c1 [P102, (Z)-1-(3-(2-isopropyl-4-methylphenyl)-4-oxothiazolidin-2-ylidene)-3-(3-(4-(1-(4-(trifluoromethoxy)phenyl)-1H-1,2,4-triazol-3-yl)phenyl)propyl)urea] | 50 to 100% | 50 to 100%
17 | CC(C)c1cc(F)ccc1N1C(=O)CS/C1=N\C(=O)NCCCc1ccc(-c2ncn(-c3ccc(OC(F)(F)F)cc3)n2)cc1 [P103, (Z)-1-(3-(4-fluoro-2-isopropylphenyl)-4-oxothiazolidin-2-ylidene)-3-(3-(4-(1-(4-(trifluoromethoxy)phenyl)-1H-1,2,4-triazol-3-yl)phenyl)propyl)urea] | 50 to 100% | 50 to 100%
18 | COc1ccc(N2C(=O)CS/C2=N\C(=O)NCCCc2ccc(-c3ncn(-c4ccc(OC(F)(F)F)cc4)n3)cc2)c(C)c1 [P105, (Z)-1-(3-(4-methoxy-2-methylphenyl)-4-oxothiazolidin-2-ylidene)-3-(3-(4-(1-(4-(trifluoromethoxy)phenyl)-1H-1,2,4-triazol-3-yl)phenyl)propyl)urea] | 50 to 100% | 50 to 100%
19 | Cc1ccccc1N1C(=O)CS/C1=N\C(=O)NCCCc1cccc(-c2ncn(-c3ccc(OC(F)(F)F)cc3)n2)c1 [P118, (Z)-1-(4-oxo-3-(o-tolyl)thiazolidin-2-ylidene)-3-(3-(3-(1-(4-(trifluoromethoxy)phenyl)-1H-1,2,4-triazol-3-yl)phenyl)propyl)urea] | 50 to 100% | 50 to 100%
20 | CCc1ccccc1N1C(=O)CS/C1=N\C(=O)NCCCc1cccc(-c2ncn(-c3ccc(OC(F)(F)F)cc3)n2)c1 [P119, (Z)-1-(3-(2-ethylphenyl)-4-oxothiazolidin-2-ylidene)-3-(3-(3-(1-(4-(trifluoromethoxy)phenyl)-1H-1,2,4-triazol-3-yl)phenyl)propyl)urea] | 50 to 100% | 50 to 100%
21 | CC(C)c1ccccc1N1C(=O)CS/C1=N\C(=O)NCCCc1cccc(-c2ncn(-c3ccc(OC(F)(F)F)cc3)n2)c1 [P120, (Z)-1-(3-(2-isopropylphenyl)-4-oxothiazolidin-2-ylidene)-3-(3-(3-(1-(4-(trifluoromethoxy)phenyl)-1H-1,2,4-triazol-3-yl)phenyl)propyl)urea] | 50 to 100% | 50 to 100%
22 | Cc1ccc(C(C)C)c(N2C(=O)CS/C2=N\C(=O)NCCCc2cccc(-c3ncn(-c4ccc(OC(F)(F)F)cc4)n3)c2)c1 [P124, (Z)-1-(3-(2-isopropyl-5-methylphenyl)-4-oxothiazolidin-2-ylidene)-3-(3-(3-(1-(4-(trifluoromethoxy)phenyl)-1H-1,2,4-triazol-3-yl)phenyl)propyl)urea] | 50 to 100% | 50 to 100%
